From patent US10017506B2, “ATX modulating agents” (BIOGEN MA INC., priority 2012, dated 2018)

Target: T1, Human ATX protein (Homo sapiens, UniProt Q13822)
T1 construct: made in house
Assay: ATX biochemical FRET assay with FS-3 substrate
Details: FRET substrate FS-3 2 μM, ATX 1.0 μg/mL, 30 minutes pre-incubation, 2 hours at room temperature; read-out: IC50
Method in brief: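 Enzyme at 1.0 μg/mL final, pre-incubated with compound (10-point, 3-fold series) for 30 min at RT in Tris pH 7.4 buffer with NaCl, KCl, CaCl2, MgCl2 and 1 mg/mL fatty-acid-free BSA. After FS-3 addition, 2 h at RT protected from light; fluorescence at 485/538 nm.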

| IC50 | Structure (SMILES) |
| --- | --- |
| ≤ 0.1 µM | C[C@@H](N[C@H]1C[C@H](C(=O)O)C1(C)C)c1ccc2ccc(O[C@H]3CC[C@@H](C)CC3)c(C(F)(F)F)c2c1 [Example 114c, (1S,3S)-2,2-dimethyl-3-(((R)-1-(7-((cis-4-methylcyclohexyl)oxy)-8-(trifluoromethyl)naphthalen-2-yl)ethyl)amino)cyclobutanecarboxylic acid] |
| ≤ 0.1 µM | CC(C)(C)[C@H]1CC[C@H](Nc2cc3cc(C(=O)N[C@H]4CC[C@H](C(=O)O)CC4)ccc3cn2)CC1 [Example 155, trans-4-(3-((trans-4-(tert-butyl)cyclohexyl)amino)isoquinoline-6-carboxamido)cyclohexanecarboxylic acid] |
| ≤ 0.25 µM | O=C(O)C1CCCN(Cc2ccc3ccc(O[C@H]4CC[C@@H](C(F)(F)F)CC4)c(C(F)(F)F)c3c2)CC1 (stereo partly drawn) [Example 123, 1-((8-(trifluoromethyl)-7-((cis-4-(trifluoromethyl)cyclohexyl)oxy)naphthalen-2-yl)methyl)azepane-4-carboxylic acid] |
| ≤ 0.25 µM | CC(c1ccc2ccc(O[C@H]3CC[C@@H](C(F)(F)F)CC3)c(C(F)(F)F)c2c1)N1CCC[C@H](CC(=O)O)C1 (stereo partly drawn) [Example 21, ((R)-1-{1-[8-trifluoromethyl-7-(4-trifluoromethyl-cyclohexyloxy)-naphthalen-2-yl]-ethyl}-piperidin-3-yl)-acetic acid] |
| ≤ 0.25 µM | CC[C@H]1CC[C@@H](Oc2ccc3ccc(C(C)NC45CCC(C(=O)O)(CC4)C5)cc3c2C(F)(F)F)CC1 (stereo partly drawn) [Example 130, 4-((1-(7-((cis-4-ethylcyclohexyl)oxy)-8-(trifluoromethyl)naphthalen-2-yl)ethyl)amino)bicyclo[2.2.1]heptane-1-carboxylic acid] |
| ≤ 0.1 µM | CC[C@H]1CC[C@@H](Oc2ccc3ccc([C@H](C)N[C@@H]4C[C@H](C(=O)O)C4(C)C)cc3c2C(F)(F)F)CC1 [Example 117b, (1S,3R)-3-(((S)-1-(7-((cis-4-ethylcyclohexyl)oxy)-8-(trifluoromethyl)naphthalen-2-yl)ethyl)amino)-2,2-dimethylcyclobutanecarboxylic acid] |
| ≤ 0.1 µM | CC(N[C@H]1CC[C@@H](C(=O)O)CC1)c1ccc2ccc(O[C@H]3CC[C@@H](C)CC3)c(C(F)(F)F)c2c1 (stereo partly drawn) [Example 142, cis-4-((1-(7-((cis-4-methylcyclohexyl)oxy)-8-(trifluoromethyl)naphthalen-2-yl)ethyl)amino)cyclohexanecarboxylic acid] |
| ≤ 0.1 µM | CC(N[C@H]1CC[C@@H](C(=O)O)CC1)c1ccc2ccc(O[C@H]3CC[C@@H](C(F)(F)F)CC3)c(C(F)(F)F)c2c1 (stereo partly drawn) [Example 129, cis-4-((1-(8-(trifluoromethyl)-7-((cis-4-(trifluoromethyl)cyclohexyl)oxy)naphthalen-2-yl)ethyl)amino)cyclohexanecarboxylic acid] |

Same assay, conditions: IC50, FRET substrate FS-3 2 μM, ATX 1.0 μg/mL, 30 minutes pre-incubation, 2 hours at room temperature

| Structure (SMILES) | IC50 |
| --- | --- |
| CC[C@H]1CC[C@@H](Oc2ccc3ccc(CN4C5CCC4CC(C(=O)O)C5)cc3c2Cl)CC1 (stereo partly drawn) [Example 48, 8-((8-chloro-7-((cis-4-ethylcyclohexyl)oxy)naphthalen-2-yl)methyl)-8-azabicyclo[3.2.1]octane-3-carboxylic acid] | ≤ 0.1 µM |
| CC(c1ccc2ccc(O[C@H]3CC[C@@H](C)CC3)c(C#N)c2c1)N1C2CCC1CC(C(=O)O)C2 (stereo partly drawn) [Example 101, 8-(1-(8-cyano-7-((cis-4-methylcyclohexyl)oxy)naphthalen-2-yl)ethyl)-8-azabicyclo[3.2.1]octane-3-carboxylic acid] | ≤ 0.1 µM |
| CC[C@H]1CC[C@@H](Oc2ccc3ccc(C(C)N4C5CCC4CC(C(=O)O)C5)cc3c2Cl)CC1 (stereo partly drawn) [Example 65, 8-(1-(8-chloro-7-((cis-4-ethylcyclohexyl)oxy)naphthalen-2-yl)ethyl)-8-azabicyclo[3.2.1]octane-3-carboxylic acid] | ≤ 0.25 µM |
| C[C@H](c1ccc2ccc(O[C@H]3CC[C@@H](C(F)(F)F)CC3)c(C(F)(F)F)c2c1)N1C2CCC1CC(C(=O)O)C2 (stereo partly drawn) [Example 12b, 8-{(R)-1-[7-(cis-4-trifluoromethyl-cyclohexyloxy)-8-trifluoromethyl-naphthalen-2-yl]-ethyl}-8-aza-bicyclo[3.2.1]octane-3-carboxylic acid] | ≤ 0.1 µM |
| CC(c1ccc2ccc(O[C@H]3CC[C@@H](C(F)(F)F)CC3)c(Cl)c2c1)N1C2CCC1CC(C(=O)O)C2 (stereo partly drawn) [Example 29, 8-(1-(8-chloro-7-((cis-4-(trifluoromethyl)cyclohexyl)oxy)naphthalen-2-yl)ethyl)-8-azabicyclo[3.2.1]octane-3-carboxylic acid] | ≤ 0.25 µM |
| CCC(c1ccc2ccc(O[C@H]3CC[C@@H](C(F)(F)F)CC3)c(C#N)c2c1)N1C2CCC1CC(C(=O)O)C2 (stereo partly drawn) [Example 40, 8-(1-(8-cyano-7-((cis-4-(trifluoromethyl)cyclohexyl)oxy)naphthalen-2-yl)propyl)-8-azabicyclo[3.2.1]octane-3-carboxylic acid] | ≤ 0.5 µM |
| C[C@@H](c1ccc2ccc(O[C@H]3CC[C@@H](C(F)(F)F)CC3)c(C(F)(F)F)c2c1)N1C2CCCC1CC(C(=O)O)C2 (stereo partly drawn) [Example 137a, 9-((S)-1-(8-(trifluoromethyl)-7-((cis-4-(trifluoromethyl)cyclohexyl)oxy)naphthalen-2-yl)ethyl)-9-azabicyclo[3.3.1]nonane-3-carboxylic acid] | ≤ 0.1 µM |
| CC(c1ccc2ccc(O[C@H]3CC[C@@H](C)CC3)c(C(F)F)c2c1)N1C2CCCC1CC(C(=O)O)C2 (stereo partly drawn) [Example 88, 9-(1-(8-(difluoromethyl)-7-((cis-4-methylcyclohexyl)oxy)naphthalen-2-yl)ethyl)-9-azabicyclo[3.3.1]nonane-3-carboxylic acid] | ≤ 0.1 µM |
| CC[C@H]1CC[C@@H](Oc2ccc3ccc(C(C)N4C5CCC4CC(C(=O)O)C5)cc3c2C#N)CC1 (stereo partly drawn) [Example 73, 8-(1-(8-cyano-7-((cis-4-ethylcyclohexyl)oxy)naphthalen-2-yl)ethyl)-8-azabicyclo[3.2.1]octane-3-carboxylic acid] | ≤ 0.1 µM |
| CC[C@H]1CC[C@@H](Oc2ccc3ccc(C(C)N4C5CCCC4CC(C(=O)OC)C5)cc3c2C(F)(F)F)CC1 (stereo partly drawn) [Example 132, methyl 9-(1-(7-((cis-4-ethylcyclohexyl)oxy)-8-(trifluoromethyl)naphthalen-2-yl)ethyl)-9-azabicyclo[3.3.1]nonane-3-carboxylate] | ≤ 0.25 µM |
| O=C(O)C1CC2CCCC(C1)N2Cc1ccc2ccc(O[C@H]3CC[C@@H](C(F)(F)F)CC3)c(Cl)c2c1 (stereo partly drawn) [Example 27, 9-((8-chloro-7-((cis-4-(trifluoromethyl)cyclohexyl)oxy)naphthalen-2-yl)methyl)-9-azabicyclo[3.3.1]nonane-3-carboxylic acid] | ≤ 0.1 µM |
| CC(c1cc2c(C(F)(F)F)c(O[C@H]3CC[C@@H](C)CC3)ccc2cc1F)N1C2CCC1CC(C(=O)O)C2 (stereo partly drawn) [Example 139, 8-(1-(3-fluoro-7-((cis-4-methylcyclohexyl)oxy)-8-(trifluoromethyl)naphthalen-2-yl)ethyl)-8-azabicyclo[3.2.1]octane-3-carboxylic acid] | ≤ 0.1 µM |
| CC(c1ccc2ccc(O[C@H]3CC[C@@H](C(F)(F)F)CC3)c(C#N)c2c1)N1C2CCCC1CC(C(=O)O)C2 (stereo partly drawn) [Example 38, 9-(1-(8-cyano-7-((cis-4-(trifluoromethyl)cyclohexyl)oxy)naphthalen-2-yl)ethyl)-9-azabicyclo[3.3.1]nonane-3-carboxylic acid] | ≤ 0.1 µM |
